Experimental findings from ChEMBL document CHEMBL5357068, “Discovery of Novel TLR7 Agonists as Systemic Agent for Combination With aPD1 for Use in Immuno-oncology” (ACS Med Chem Lett, 2024) are described below.

For one series, the target named is Cytochrome P450 3A4 (Homo sapiens, UniProt P08684). The series is described as follows: Inhibition of CYP3A4 (unknown origin) using 7-benzyloxy-4-(trifluoromethyl)-coumarin as substrate preincubated with compound followed by substrate addition at 30 mins. The format is ADME.
Chain of Cytochrome P450 3A4 (P08684 whole entry): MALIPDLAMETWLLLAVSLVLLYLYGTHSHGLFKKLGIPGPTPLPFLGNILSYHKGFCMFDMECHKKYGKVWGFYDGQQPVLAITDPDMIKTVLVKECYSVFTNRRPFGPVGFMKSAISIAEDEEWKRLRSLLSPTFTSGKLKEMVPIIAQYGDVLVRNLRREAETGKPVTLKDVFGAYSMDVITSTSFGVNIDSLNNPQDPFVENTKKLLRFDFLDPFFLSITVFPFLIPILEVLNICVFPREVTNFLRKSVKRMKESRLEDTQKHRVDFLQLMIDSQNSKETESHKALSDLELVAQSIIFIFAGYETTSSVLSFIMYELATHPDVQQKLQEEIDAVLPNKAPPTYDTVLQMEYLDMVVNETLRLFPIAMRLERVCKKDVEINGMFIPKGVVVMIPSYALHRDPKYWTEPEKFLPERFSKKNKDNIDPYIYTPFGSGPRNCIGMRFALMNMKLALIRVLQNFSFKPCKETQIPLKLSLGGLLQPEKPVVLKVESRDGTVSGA
A further series is described as follows: in vitro. The settings on record: PHA-activated T cells.
A short description of series [1]: Metabolic stability in human liver microsomes assessed as compound remaining. Note: time not given here. The format is ADME, Microsome. In general terms: Liver microsomes are vesicles of endoplasmic reticulum, rich in cytochrome P450 enzymes.
The target of series [2] is Voltage-gated inwardly rectifying potassium channel KCNH2 (Homo sapiens, UniProt Q12809). Briefly: Inhibition of hERG by patch clamp assay. It is filed as toxicity. In general terms: The hERG channel carries a current that helps repolarise heart muscle cells.
Chain of Voltage-gated inwardly rectifying potassium channel KCNH2 (Q12809 whole entry): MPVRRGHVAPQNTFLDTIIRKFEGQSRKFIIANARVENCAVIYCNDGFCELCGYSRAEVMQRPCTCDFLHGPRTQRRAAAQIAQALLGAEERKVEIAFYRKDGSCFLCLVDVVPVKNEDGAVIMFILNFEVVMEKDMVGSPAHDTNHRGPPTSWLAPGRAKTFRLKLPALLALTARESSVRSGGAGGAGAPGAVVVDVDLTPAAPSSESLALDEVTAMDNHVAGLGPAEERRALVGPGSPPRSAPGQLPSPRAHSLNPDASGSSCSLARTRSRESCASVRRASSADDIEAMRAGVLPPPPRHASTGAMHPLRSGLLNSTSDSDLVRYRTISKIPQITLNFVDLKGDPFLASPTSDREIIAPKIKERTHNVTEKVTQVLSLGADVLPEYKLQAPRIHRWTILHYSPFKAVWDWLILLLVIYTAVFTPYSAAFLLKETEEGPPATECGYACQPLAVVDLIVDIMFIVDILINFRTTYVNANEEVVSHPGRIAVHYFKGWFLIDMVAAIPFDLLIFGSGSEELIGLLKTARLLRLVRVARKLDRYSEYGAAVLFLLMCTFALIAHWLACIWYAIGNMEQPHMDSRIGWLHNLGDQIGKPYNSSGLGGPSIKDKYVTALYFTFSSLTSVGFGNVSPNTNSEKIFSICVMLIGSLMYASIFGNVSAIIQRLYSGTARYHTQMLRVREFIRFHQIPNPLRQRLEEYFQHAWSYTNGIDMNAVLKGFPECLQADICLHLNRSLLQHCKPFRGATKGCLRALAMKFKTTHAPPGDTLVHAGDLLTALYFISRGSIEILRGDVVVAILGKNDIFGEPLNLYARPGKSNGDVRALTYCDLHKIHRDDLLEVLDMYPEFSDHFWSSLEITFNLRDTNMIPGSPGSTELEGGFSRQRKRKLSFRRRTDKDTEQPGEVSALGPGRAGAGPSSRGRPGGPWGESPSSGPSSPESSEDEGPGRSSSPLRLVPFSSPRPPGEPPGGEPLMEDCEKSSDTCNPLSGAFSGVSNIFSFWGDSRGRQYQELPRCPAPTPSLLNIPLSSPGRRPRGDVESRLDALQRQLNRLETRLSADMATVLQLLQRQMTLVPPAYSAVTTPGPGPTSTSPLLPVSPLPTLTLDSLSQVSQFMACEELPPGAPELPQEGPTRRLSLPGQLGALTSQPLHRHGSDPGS
The target of another series is T1, Toll-like receptor 8 (Homo sapiens, UniProt Q9NR97).
T1 sequence (Q9NR97 whole entry): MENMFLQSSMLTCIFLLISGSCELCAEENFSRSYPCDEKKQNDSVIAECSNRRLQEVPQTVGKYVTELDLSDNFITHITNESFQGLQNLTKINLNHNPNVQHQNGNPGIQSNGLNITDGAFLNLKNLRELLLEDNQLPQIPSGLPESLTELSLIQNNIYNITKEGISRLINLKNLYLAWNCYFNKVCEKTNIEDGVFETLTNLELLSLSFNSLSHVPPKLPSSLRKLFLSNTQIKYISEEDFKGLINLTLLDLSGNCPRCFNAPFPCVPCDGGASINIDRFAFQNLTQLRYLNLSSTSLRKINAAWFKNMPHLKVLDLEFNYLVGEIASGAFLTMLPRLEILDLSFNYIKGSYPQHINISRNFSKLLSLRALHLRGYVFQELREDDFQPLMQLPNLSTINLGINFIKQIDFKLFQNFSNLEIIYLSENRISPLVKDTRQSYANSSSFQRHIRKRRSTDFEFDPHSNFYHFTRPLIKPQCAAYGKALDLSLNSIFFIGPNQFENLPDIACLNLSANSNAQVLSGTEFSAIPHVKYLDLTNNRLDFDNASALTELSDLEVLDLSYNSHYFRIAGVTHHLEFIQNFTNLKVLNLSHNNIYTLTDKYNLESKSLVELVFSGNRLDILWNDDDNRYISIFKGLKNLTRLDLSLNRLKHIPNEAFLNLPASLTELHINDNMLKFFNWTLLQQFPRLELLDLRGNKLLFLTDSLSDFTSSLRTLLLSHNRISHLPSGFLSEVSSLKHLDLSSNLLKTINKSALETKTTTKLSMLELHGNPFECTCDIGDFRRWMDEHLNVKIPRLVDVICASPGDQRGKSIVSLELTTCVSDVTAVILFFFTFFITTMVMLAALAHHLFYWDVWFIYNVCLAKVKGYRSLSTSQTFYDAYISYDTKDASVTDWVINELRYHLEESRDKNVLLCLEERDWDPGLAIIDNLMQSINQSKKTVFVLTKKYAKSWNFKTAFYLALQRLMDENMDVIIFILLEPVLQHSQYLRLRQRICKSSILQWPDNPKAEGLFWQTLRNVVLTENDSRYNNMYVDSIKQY
Briefly: Agonist activity at human TLR8.

Series [3] has as its target T2, Toll-like receptor 7 (Mus musculus, UniProt P58681).
T2 sequence (P58681 whole entry): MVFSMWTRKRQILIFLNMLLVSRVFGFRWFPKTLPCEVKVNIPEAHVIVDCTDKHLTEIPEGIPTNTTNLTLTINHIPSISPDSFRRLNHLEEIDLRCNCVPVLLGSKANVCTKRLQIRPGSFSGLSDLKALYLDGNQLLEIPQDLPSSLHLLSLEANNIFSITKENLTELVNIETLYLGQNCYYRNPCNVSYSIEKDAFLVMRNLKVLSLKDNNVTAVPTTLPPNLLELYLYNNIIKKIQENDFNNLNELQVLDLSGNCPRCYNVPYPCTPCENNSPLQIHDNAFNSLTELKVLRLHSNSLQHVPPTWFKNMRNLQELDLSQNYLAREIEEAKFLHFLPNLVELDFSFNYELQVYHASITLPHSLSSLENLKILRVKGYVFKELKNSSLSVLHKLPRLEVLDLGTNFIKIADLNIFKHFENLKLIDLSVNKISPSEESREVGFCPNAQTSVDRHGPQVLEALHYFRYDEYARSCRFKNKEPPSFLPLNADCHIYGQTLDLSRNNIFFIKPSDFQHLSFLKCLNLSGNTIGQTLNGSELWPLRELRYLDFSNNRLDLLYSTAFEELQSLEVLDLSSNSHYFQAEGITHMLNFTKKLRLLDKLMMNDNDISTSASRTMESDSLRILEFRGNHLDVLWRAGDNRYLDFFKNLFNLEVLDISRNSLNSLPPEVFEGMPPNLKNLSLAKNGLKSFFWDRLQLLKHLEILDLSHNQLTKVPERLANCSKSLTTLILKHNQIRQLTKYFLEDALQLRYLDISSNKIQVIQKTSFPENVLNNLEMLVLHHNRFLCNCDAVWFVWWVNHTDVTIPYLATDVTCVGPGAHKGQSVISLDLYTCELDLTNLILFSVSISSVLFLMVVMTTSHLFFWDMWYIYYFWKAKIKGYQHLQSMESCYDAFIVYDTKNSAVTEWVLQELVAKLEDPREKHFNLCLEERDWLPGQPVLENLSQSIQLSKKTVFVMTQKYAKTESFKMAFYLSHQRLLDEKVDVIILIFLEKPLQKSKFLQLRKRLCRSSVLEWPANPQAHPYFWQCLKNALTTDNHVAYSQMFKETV
Briefly: Agonist activity at mouse TLR7.

A short description of series [4]: Metabolic stability in mouse liver microsomes assessed as compound remaining. Note: time not given here. The format is ADME, Microsome.
Series [5] deals with T2, Toll-like receptor 7.
The target of series [6] is T3, Toll-like receptor 8 (Homo sapiens) (UniProt Q9NR97).
T3 sequence (whole entry): T1 sequence (Q9NR97 whole entry)
Briefly: Agonist activity at TLR8 (unknown origin).

The structures appear in SMILES notation. Activity calls are given as the source filed them. No cut-off for these calls is given here. Where only a bound is given, the exact number is not on record here.

What is called IC50 is the point on the concentration scale where inhibition reaches its midpoint. For orientation: EC50 means the concentration needed to bring the measured effect to its halfway point. A lower EC50 goes with an effect from little substance. For the molecule `CCCCNc1nc(N)nc2cnn(Cc3ccc(CNC4CCC4)cc3OC)c12`, the half-inhibitory concentration (IC50) on Cytochrome P450 3A4 was determined as 6.65 µM; in the series “in vitro”, 16 µM; in series [2], 18.8 µM. For the same molecule, the Stability in [1] came out at 41%; in series [4] it was 2%. Moreover, the 50% effective concentration (EC50) on Toll-like receptor 8 was more than 5 µM; at Toll-like receptor 7 [3], 0.121 µM.
Consider `CCC[C@@H](CCO)Nc1nc(N)nc2cnn(Cc3ccc(CNC4CCOCC4)nc3)c12`, for which the IC50 was more than 25 µM in the series “in vitro” and more than 50 µM in series [2]. Besides, the Stability in series [1] was found to be 100%; in series [4], 91%. On Toll-like receptor 7 [5], this molecule yielded an EC50 of more than 5 µM. For the same molecule, in series [6], the outcome was inactive.
